Molecular target: T1, recombinant human liver glycogen phosphorylase (HLGPa) (Homo sapiens, UniProt P06737)
T1 construct: made in house; host or cells: Sf9 insect cells (unpurified cell lysate used as enzyme solution)
T1 sequence (P06737 1-847): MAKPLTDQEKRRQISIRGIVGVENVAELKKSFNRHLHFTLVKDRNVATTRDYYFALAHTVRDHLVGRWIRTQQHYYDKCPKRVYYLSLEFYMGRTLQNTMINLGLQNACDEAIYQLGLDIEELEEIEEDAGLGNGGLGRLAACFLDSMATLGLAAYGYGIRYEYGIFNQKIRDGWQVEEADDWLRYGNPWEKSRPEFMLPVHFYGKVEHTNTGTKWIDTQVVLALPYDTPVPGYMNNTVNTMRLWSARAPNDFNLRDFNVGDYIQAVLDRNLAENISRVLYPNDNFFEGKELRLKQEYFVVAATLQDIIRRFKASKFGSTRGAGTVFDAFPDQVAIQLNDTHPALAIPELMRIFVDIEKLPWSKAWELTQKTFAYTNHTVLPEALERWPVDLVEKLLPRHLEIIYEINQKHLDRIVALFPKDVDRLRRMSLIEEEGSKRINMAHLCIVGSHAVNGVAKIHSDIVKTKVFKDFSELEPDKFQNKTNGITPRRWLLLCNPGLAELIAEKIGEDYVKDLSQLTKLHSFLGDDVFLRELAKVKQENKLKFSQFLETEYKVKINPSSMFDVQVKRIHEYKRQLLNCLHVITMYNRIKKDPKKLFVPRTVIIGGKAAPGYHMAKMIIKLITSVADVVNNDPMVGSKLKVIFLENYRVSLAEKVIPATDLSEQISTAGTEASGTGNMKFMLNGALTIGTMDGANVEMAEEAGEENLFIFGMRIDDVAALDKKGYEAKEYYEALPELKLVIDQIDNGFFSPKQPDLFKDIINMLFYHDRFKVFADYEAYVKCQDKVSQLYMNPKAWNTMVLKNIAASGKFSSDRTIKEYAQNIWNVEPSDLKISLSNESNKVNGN
Experiment: Measurement of liver glycogen phosphorylase activity (enzyme inhibitory activity against HLGPa)
Assay type: biochemical
Conditions: Sf9 cell lysate expressing recombinant enzyme; reverse reaction (glycogen synthesis from G1-P), phosphate by malachite green, 60 min room temperature
Method: Measurement Method of Liver Glycogen Phosphorylase Activity
The measurement of the glycogen phosphorylase activity was performed by measuring the concentration of phosphoric acic produced by a reverse reaction, that is, a reaction wherein the glycogen phosphorylase synthesizes glycogen from G1-P. A cell lysate of Sf9 cells that forcibly expressed recombinant human liver glycogen phosphorylase was diluted to a protein amount of 80 μg/mL with 1 mM imidazole-hydrochloric acid buffer (pH 7.0, containing 0.2 mM PMSF, 250 mM NaCl, 0.025% BSA) and the dilute cell lysate was used as an enzyme solution of human liver glycogen phosphorylase. As a substrate solution, 25 mM Tris-HCl buffer (pH 7.2, containing 250 mM KCl, 6.25 mM MgCl2, 6.25 mM EGTA, 1.25 mM glucose-1-phosphate, 2.5 mg/ml glycogen, 7.5 mM glucose) was used. The test drug was dissolved in 0.5% dimethyl sulfoxide (DMSO). To a mixture of the test drug (10 μl) and the substrate solution (20 μl) was added an enzyme solution (20 μl) to start the enzyme reaction. As a control, 0.5% DMSO was added instead of the test drug. One free of addition of enzyme was used as a blank. The mixture was reacted at room temperature for 60 min, and a malachite green solution (50 μl) was added. The mixture was further reacted at room temperature for 20 min and absorbance at 650 nm was measured. An enzyme solution was added to the blank simultaneously with the malachite green solution and the measurement was done in the same manner. The percent inhibition (%) of the test drug was calculated from ((value of control−value of the test drug)/(value of control−value of blank))×100 (%).

SMILES	IC50 [nM]
O=C(NNC(=O)c1cc2cc(Cl)ccc2[nH]1)c1ccccc1 [Example 1, benzoic acid 2-(5-chloro-1H-indole-2-carbonyl)hydrazide]	38
O=C(NNC(=O)c1ccccc1O)c1cc2cc(Cl)ccc2[nH]1 [Example 1-3, 2-hydroxybenzoic acid 2-(5-chloro-1H-indole-2-carbonyl)hydrazide]	37
O=C(NNC(=O)c1cc2cc(F)ccc2[nH]1)c1ccccc1 [Example 1-9, benzoic acid 2-(5-fluoro-1H-indole-2-carbonyl)hydrazide]	73
O=C(NNC(=O)C1CCCCC1)c1cc2cc(F)ccc2[nH]1 [Example 1-10, cyclohexanecarboxylic acid 2-(5-fluoro-1H-indole-2-carbonyl)hydrazide]	200
O=C(NNC(=O)c1cccs1)c1cc2cc(F)ccc2[nH]1 [Example 1-11, thiophene-2-carboxylic acid 2-(5-fluoro-1H-indole-2-carbonyl)hydrazide]	72
O=C(NNC(=O)c1cc2cc(Cl)ccc2[nH]1)c1ccc([N+](=O)[O-])cc1 [Example 1-12, 4-nitrobenzoic acid 2-(5-chloro-1H-indole-2-carbonyl)hydrazide]	790
Cc1ccccc1C(=O)NNC(=O)c1cc2cc(Cl)ccc2[nH]1 [Example 1-13, 2-methylbenzoic acid 2-(5-chloro-1H-indole-2-carbonyl)hydrazide]	72
Cc1ccc(C(=O)NNC(=O)c2cc3cc(Cl)ccc3[nH]2)cc1 [Example 1-14, 4-methylbenzoic acid 2-(5-chloro-1H-indole-2-carbonyl)hydrazide]	130
COc1ccccc1C(=O)NNC(=O)c1cc2cc(Cl)ccc2[nH]1 [Example 1-15, 2-methoxybenzoic acid 2-(5-chloro-1H-indole-2-carbonyl)hydrazide]	120
COc1cccc(C(=O)NNC(=O)c2cc3cc(Cl)ccc3[nH]2)c1 [Example 1-16, 3-methoxybenzoic acid 2-(5-chloro-1H-indole-2-carbonyl)hydrazide]	73
Cc1cccc(C(=O)NNC(=O)c2cc3cc(Cl)ccc3[nH]2)c1 [Example 1-18, 3-methylbenzoic acid 2-(5-chloro-1H-indole-2-carbonyl)hydrazide]	99
O=C(NNC(=O)c1ccccc1Cl)c1cc2cc(Cl)ccc2[nH]1 [Example 1-19, 2-chlorobenzoic acid 2-(5-chloro-1H-indole-2-carbonyl)hydrazide]	91
O=C(NNC(=O)c1cc2cc(Cl)ccc2[nH]1)c1cccc(Cl)c1 [Example 1-20, 3-chlorobenzoic acid 2-(5-chloro-1H-indole-2-carbonyl)hydrazide]	35
O=C(NNC(=O)c1cc2cc(Cl)ccc2[nH]1)c1ccc(Cl)cc1 [Example 1-21, 4-chlorobenzoic acid 2-(5-chloro-1H-indole-2-carbonyl)hydrazide]	49
O=C(NNC(=O)C1CCCCC1)c1cc2cc(Cl)ccc2[nH]1 [Example 1-23, cyclohexanecarboxylic acid 2-(5-chloro-1H-indole-2-carbonyl)hydrazide]	75
O=C(NNC(=O)c1ccc(Cl)cc1Cl)c1cc2cc(Cl)ccc2[nH]1 [Example 1-24, 2,4-dichlorobenzoic acid 2-(5-chloro-1H-indole-2-carbonyl)hydrazide]	170

The remaining lines, values ahead:

IC50 [nM]	SMILES
360	CC(=O)N[C@H](C(=O)NNC(=O)c1cc2cc(Cl)ccc2[nH]1)c1ccccc1 (stereo in doubt) [Example 5-19, N-(2-(2-(5-chloro-1H-indole-2-carbonyl)hydrazino)-2-oxo-1-phenylethyl)acetamide]
140	O=C(NNC(=O)c1c(Cl)cccc1Cl)c1cc2cc(Cl)ccc2[nH]1 [Example 1-25, 2,6-dichlorobenzoic acid 2-(5-chloro-1H-indole-2-carbonyl)hydrazide]
18	O=C(NNC(=O)c1ccc(F)cc1F)c1cc2cc(Cl)ccc2[nH]1 [Example 1-26, 2,4-difluorobenzoic acid 2-(5-chloro-1H-indole-2-carbonyl)hydrazide]
47	O=C(NNC(=O)c1ccccc1-c1ccccc1)c1cc2cc(Cl)ccc2[nH]1 [Example 1-27, biphenyl-2-carboxylic acid 2-(5-chloro-1H-indole-2-carbonyl)hydrazide]
49	O=C(NNC(=O)c1cc2cc(Cl)ccc2[nH]1)c1cccc(F)c1 [Example 1-28, 3-fluorobenzoic acid 2-(5-chloro-1H-indole-2-carbonyl)hydrazide]
15	O=C(NNC(=O)c1cc2cc(Cl)ccc2[nH]1)c1ccc(F)cc1 [Example 1-29, 4-fluorobenzoic acid 2-(5-chloro-1H-indole-2-carbonyl)hydrazide]
240	O=C(NNC(=O)c1cc2cc(Cl)ccc2[nH]1)c1cccc(C(F)(F)F)c1 [Example 1-30, 3-trifluoromethylbenzoic acid 2-(5-chloro-1H-indole-2-carbonyl)hydrazide]
350	O=C(NNC(=O)c1ccccc1C(F)(F)F)c1cc2cc(Cl)ccc2[nH]1 [Example 1-32, 2-trifluoromethylbenzoic acid 2-(5-chloro-1H-indole-2-carbonyl)hydrazide]
86	Cc1ccc2[nH]c(C(=O)NNC(=O)c3ccccc3)cc2c1 [Example 1-33, benzoic acid 2-(5-methyl-1H-indole-2-carbonyl)hydrazide]
> 100	CC(C)c1ccc2[nH]c(C(=O)NNC(=O)c3ccccc3N)cc2c1 [Example 1-36, 2-aminobenzoic acid 2-(5-isopropyl-1H-indole-2-carbonyl)hydrazide]
> 100	CC(C)c1ccc2[nH]c(C(=O)NNC(=O)c3ccc(F)cc3N)cc2c1 [Example 1-37, 2-amino-4-fluorobenzoic acid 2-(5-isopropyl-1H-indole-2-carbonyl)hydrazide]
> 100	Nc1ccccc1C(=O)NNC(=O)c1cc2cc(F)ccc2[nH]1 [Example 1-38, 2-aminobenzoic acid 2-(5-fluoro-1H-indole-2-carbonyl)hydrazide]
810	Nc1ccccc1C(=O)NNC(=O)c1cc2ccc(Cl)cc2[nH]1 [Example 1-39, 2-aminobenzoic acid 2-(6-chloro-1H-indole-2-carbonyl)hydrazide]
310	Nc1cnccc1C(=O)NNC(=O)c1cc2cc(Cl)ccc2[nH]1 [Example 1-41, 3-aminoisonicotinic acid 2-(5-chloro-1H-indole-2-carbonyl)hydrazide]
260	O=C(NNC(=O)c1cc2cc(Cl)ccc2[nH]1)c1ccncc1 [Example 1-42, isonicotinic acid 2-(5-chloro-1H-indole-2-carbonyl)hydrazide]
95	O=C(NNC(=O)c1cc2cc(Cl)ccc2[nH]1)c1cccnc1 [Example 1-43, nicotinic acid 2-(5-chloro-1H-indole-2-carbonyl)hydrazide]
290	CC(=O)Nc1cccc(C(=O)NNC(=O)c2cc3cc(Cl)ccc3[nH]2)c1 [Example 1-46, N-(3-(2-(5-chloro-1H-indole-2-carbonyl)hydrazinocarbonyl)phenyl)acetamide]
660	CC(=O)Nc1ccccc1C(=O)NNC(=O)c1cc2cc(Cl)ccc2[nH]1 [Example 1-47, N-(2-(2-(5-chloro-1H-indole-2-carbonyl)hydrazinocarbonyl)phenyl)acetamide]
150	COC(=O)COc1ccccc1C(=O)NNC(=O)c1cc2cc(Cl)ccc2[nH]1 [Example 1-49, 2-(2-(2-(5-chloro-1H-indole-2-carbonyl)hydrazinocarbonyl)phenoxy)acetic acid methyl ester]
27	O=C(O)COc1ccccc1C(=O)NNC(=O)c1cc2cc(Cl)ccc2[nH]1 [Example 1-50, 2-(2-(2-(5-chloro-1H-indole-2-carbonyl)hydrazinocarbonyl)phenoxy)acetic acid]

Source: patent US20050054696A1, “Indole compounds and medicinal use thereof” (priority 2001, published 2005)
